In US20160194299A1 (priority 2013, published 2016):
Values after ≈ are worked out from the molar mass of the structure shown. Read-outs that look alike come from different tables or passages of the source.

Tests used:
[1] = test system: Mtb; assay: microbe, parasite or virus in culture; format: cell-based, Mycobacterium tuberculosis; details: Mycobacterium tuberculosis, read-out: MIC (III)
[2] = in vitro; details: African green monkey
[3] = test system: Mtb; assay: microbe, parasite or virus in culture; format: cell-based, Mycobacterium tuberculosis; details: Mycobacterium tuberculosis, read-out: MIC (I)

Structure (SMILES) | MIC [1] | CC50 [2] | MIC [3]
CCOC(=O)NC(=O)c1ccsc1NC(=O)c1noc(C)n1 [Compound 74] | > 25 µg/mL | 25 to 50 µg/mL (≈ 77.1 to 154 µM) | > 3 µg/mL
CC(C)OC(=O)NC(=O)c1ccsc1NC(=O)c1cnc2ccoc2c1 [Compound 354] | > 25 µg/mL | 25 to 50 µg/mL (≈ 67 to 134 µM) | > 3 µg/mL
CCOC(=O)NC(=O)c1cc(C(=O)OCC)sc1NC(=O)c1nc2cnccc2s1 [Compound 279] | > 25 µg/mL | 25 to 50 µg/mL (≈ 55.7 to 111 µM) | > 3 µg/mL
CCOC(=O)NC(=O)c1ccsc1NC(=O)c1ccc2nccnc2c1 [Compound 398] | 5 to 25 µg/mL (≈ 13.5 to 67.5 µM) | < 25 µg/mL | < 1 µg/mL
CC(=O)N1CCC(OC(=O)NC(=O)c2ccsc2NC(=O)c2cnc3ccnn3c2)CC1 [Compound 368] | > 25 µg/mL | 25 to 50 µg/mL (≈ 54.8 to 110 µM) | > 3 µg/mL
C=CCOC(=O)NC(=O)c1ccsc1NC(=O)c1nc2cnccc2s1 [Compound 99] | < 5 µg/mL | 25 to 50 µg/mL (≈ 64.4 to 129 µM) | < 1 µg/mL
CCOC(=O)NC(=O)c1ccsc1NC(=O)c1cncn1C [Compound 263] | > 25 µg/mL | > 50 µg/mL | > 3 µg/mL
CC(C)OC(=O)NC(=O)c1cc(F)sc1NC(=O)c1ccn2nccc2c1 [Compound 346] | > 25 µg/mL | < 25 µg/mL | 1 to 3 µg/mL (≈ 2.56 to 7.68 µM)
CCOC(=O)NC(=O)c1ccsc1NC(=O)c1nsc2ccccc12 [Compound 378] | > 25 µg/mL | 25 to 50 µg/mL (≈ 66.6 to 133 µM) | > 3 µg/mL
CC(C)OC(=O)NC(=O)c1ccsc1NC(=O)c1ccn2nccc2c1 [Compound 317] | > 25 µg/mL | < 25 µg/mL | < 1 µg/mL
COC(=O)NC(=O)c1ccsc1NC(=O)c1cn2ccccc2n1 [Compound 347] | > 25 µg/mL | 25 to 50 µg/mL (≈ 72.6 to 145 µM) | > 3 µg/mL
O=C(NC(=O)c1ccsc1NC(=O)c1nc2ccccc2s1)OC1CCC1 [Compound 321] | > 25 µg/mL | > 50 µg/mL | < 1 µg/mL
O=C(NC(=O)c1ccsc1NC(=O)c1nc2cnccc2s1)OC1CCOC1 (stereo not drawn) [Compound 102] | < 5 µg/mL | > 50 µg/mL | < 1 µg/mL
O=C(NC(=O)c1ccsc1NC(=O)c1nc2ccccc2s1)OCc1ccccc1C(F)(F)F [Compound 294] | > 25 µg/mL | 25 to 50 µg/mL (≈ 49.5 to 98.9 µM) | > 3 µg/mL
CC(C)OC(=O)NC(=O)c1ccsc1NC(=O)c1cc2c(F)cccc2s1 [Compound 330] | 5 to 25 µg/mL (≈ 12.3 to 61.5 µM) | < 25 µg/mL | < 1 µg/mL
COCCOC(=O)NC(=O)c1ccsc1NC(=O)c1cn2ccccc2n1 [Compound 373] | > 25 µg/mL | 25 to 50 µg/mL (≈ 64.4 to 129 µM) | > 3 µg/mL
CC(C)OC(=O)NC(=O)c1ccsc1NC(=O)c1nc2ncccc2s1 [Compound 390] | > 25 µg/mL | < 25 µg/mL | < 1 µg/mL
CCOC(=O)NC(=O)c1ccsc1NC(=O)c1nc2cnc(N3CCOCC3)cc2s1 [Compound 311] | > 25 µg/mL | > 50 µg/mL | < 1 µg/mL
CCOC(=O)NC(=O)c1ccsc1NC(=O)c1ccc2cnccc2c1 [Compound 145] | > 25 µg/mL | > 50 µg/mL | > 3 µg/mL
O=C(NC(=O)c1ccsc1NC(=O)c1nc2cnccc2s1)OCc1cccnc1 [Compound 301] | > 25 µg/mL | 25 to 50 µg/mL (≈ 56.9 to 114 µM) | > 3 µg/mL
CCOC(=O)NC(=O)c1ccsc1NC(=O)c1cnc2c(-c3ccc(OC)cc3)cnn2c1 [Compound 299] | > 25 µg/mL | < 25 µg/mL | < 1 µg/mL
CCOC(=O)NC(=O)c1ccsc1NC(=O)c1sc2ccccc2c1Cl [Compound 88] | 5 to 25 µg/mL (≈ 12.2 to 61.1 µM) | > 50 µg/mL | < 1 µg/mL
CCOC(=O)NC(=O)c1ccsc1NC(=O)c1ccnc(NC(=O)N2CCOCC2)c1 [Compound 33] | > 25 µg/mL | > 50 µg/mL | < 1 µg/mL

Structure (SMILES) | MIC [1] | CC50 [2] | MIC [3]
CCOC(=O)NC(=O)c1ccsc1NC(=O)c1cnc(O)cn1 [Compound 129] | > 25 µg/mL | > 50 µg/mL | > 3 µg/mL
O=C(Nc1sccc1C(=O)OCCN1CCOCC1)c1nc2ccccc2s1 [Compound 291] | > 25 µg/mL | > 50 µg/mL | > 3 µg/mL
CCOC(=O)NC(=O)c1ccsc1NC(=O)c1cnc2c(N3CCOCC3)cnn2c1 [Compound 315] | > 25 µg/mL | 25 to 50 µg/mL (≈ 56.2 to 112 µM) | < 1 µg/mL
O=C(NC(=O)c1ccsc1NC(=O)c1cnc2ccnn2c1)OCc1ccccc1 [Compound 300] | > 25 µg/mL | 25 to 50 µg/mL (≈ 59.3 to 119 µM) | > 3 µg/mL
CCOC(=O)NC(=O)c1ccsc1NC(=O)c1csc(C(F)(F)F)n1 [Compound 131] | 5 to 25 µg/mL (≈ 12.7 to 63.6 µM) | < 25 µg/mL | > 3 µg/mL
CC(C)COC(=O)NC(=O)c1ccsc1NC(=O)c1cnc2ccnn2c1 [Compound 283] | > 25 µg/mL | 25 to 50 µg/mL (≈ 64.5 to 129 µM) | 1 to 3 µg/mL (≈ 2.58 to 7.74 µM)
CCOC(=O)NC(=O)c1ccsc1NC(=O)C1COc2ccccc2O1 (stereo not drawn) [Compound 92] | 5 to 25 µg/mL (≈ 13.3 to 66.4 µM) | 25 to 50 µg/mL (≈ 66.4 to 133 µM) | > 3 µg/mL
CCOC(=O)NC(=O)c1ccsc1NC(=O)c1cnc2cc(C)nn2c1C [Compound 65] | < 5 µg/mL | > 50 µg/mL | < 1 µg/mL
O=C(NCC(F)(F)F)NC(=O)c1ccsc1NC(=O)c1nc2ccccc2s1 [Compound 349] | > 25 µg/mL | 25 to 50 µg/mL (≈ 58.4 to 117 µM) | > 3 µg/mL
CCOC(=O)NC(=O)c1ccsc1NC(=O)c1ccnc(NC(=O)N2CCS(=O)(=O)CC2)c1 [Compound 47] | > 25 µg/mL | > 50 µg/mL | < 1 µg/mL
CCOC(=O)NC(=O)c1ccsc1NC(=O)c1cc(C)nc2ccccc12 [Compound 122] | > 25 µg/mL | > 50 µg/mL | > 3 µg/mL
CCOC(=O)NC(=O)c1ccsc1NC(=O)c1cccc2cccnc12 [Compound 112] | > 25 µg/mL | > 50 µg/mL | > 3 µg/mL
CC(C)OC(=O)NC(=O)c1cc(F)sc1NC(=O)c1cc2ncccn2n1 [Compound 345] | > 25 µg/mL | 25 to 50 µg/mL (≈ 63.9 to 128 µM) | < 1 µg/mL
CC(C)COC(=O)NC(=O)c1ccsc1NC(=O)c1nc2ccccc2s1 [Compound 281] | > 25 µg/mL | 25 to 50 µg/mL (≈ 62 to 124 µM) | < 1 µg/mL
CC(C)OC(=O)NC(=O)c1ccsc1NC(=O)c1cc2ncccn2n1 [Compound 340] | > 25 µg/mL | 25 to 50 µg/mL (≈ 67 to 134 µM) | < 1 µg/mL
CCOC(=O)NC(=O)c1ccsc1NC(=O)c1ccnc(NC(=O)N2CCN(C)CC2)c1.Cl.Cl [Compound 49] | > 25 µg/mL | > 50 µg/mL | 1 to 3 µg/mL
CC(C)OC(=O)NC(=O)c1ccsc1NC(=O)c1ccc2nccnc2c1 [Compound 399] | > 25 µg/mL | < 25 µg/mL | < 1 µg/mL
O=C(NC(=O)c1ccsc1NC(=O)c1cnc2ccnn2c1)OCc1ccc(F)cc1 [Compound 284] | > 25 µg/mL | 25 to 50 µg/mL (≈ 56.9 to 114 µM) | > 3 µg/mL
CCOC(=O)NC(=O)c1ccsc1NC(=O)c1cn2c(n1)CCCC2 [Compound 309] | 5 to 25 µg/mL (≈ 13.8 to 69 µM) | < 25 µg/mL | 1 to 3 µg/mL (≈ 2.76 to 8.28 µM)
O=C(NC(=O)c1ccsc1NC(=O)c1nc2cnccc2s1)OC1CCCC1 [Compound 380] | > 25 µg/mL | < 25 µg/mL | < 1 µg/mL
CCOC(=O)NC(=O)c1ccsc1NC(=O)c1nc2cnc(Cl)cc2s1 [Compound 267] | > 25 µg/mL | > 50 µg/mL | < 1 µg/mL
CCOC(=O)NC(=O)c1ccsc1NC(=O)c1ccc2scnc2c1 [Compound 43] | 5 to 25 µg/mL (≈ 13.3 to 66.6 µM) | > 50 µg/mL | < 1 µg/mL
